Experimental data: US8575158B2, “1-phenyl-substituted heterocyclyl derivatives and their use as prostaglandin D2 receptor modulators” (Actelion Pharmaceuticals Ltd., priority 2010, dated 2013)

Target: T1, hCRTH2 receptor (Homo sapiens, UniProt Q9Y5Y4)
T1 construct: expressed in transfected cells; host or cells: HEK293
T1 sequence (Q9Y5Y4 1-395): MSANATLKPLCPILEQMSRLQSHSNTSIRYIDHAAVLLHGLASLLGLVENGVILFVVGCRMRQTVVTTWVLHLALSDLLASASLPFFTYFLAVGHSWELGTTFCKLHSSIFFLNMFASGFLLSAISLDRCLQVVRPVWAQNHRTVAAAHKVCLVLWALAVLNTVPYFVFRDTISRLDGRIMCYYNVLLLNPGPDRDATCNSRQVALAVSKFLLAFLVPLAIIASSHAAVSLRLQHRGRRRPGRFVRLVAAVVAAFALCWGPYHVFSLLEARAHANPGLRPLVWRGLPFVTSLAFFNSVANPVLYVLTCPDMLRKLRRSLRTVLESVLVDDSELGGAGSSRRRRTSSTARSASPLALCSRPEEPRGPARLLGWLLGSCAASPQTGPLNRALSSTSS
Assay: Radioligand displacement assay (3H-PGD2) on hCRTH2 receptor membranes
Type: binding
Settings: antagonistic activity

[1] = 3H-PGD2 displacement on HEK293-hCRTH2 membrane fragments
[2] = 3H-PGD2 radioligand displacement, HEK293-hCRTH2 membranes

For O=C(O)COc1ccc(Cl)cc1C1c2ccccc2CCN1C(=O)[C@@H]1C[C@H]1c1cccc(Cl)c1 (single isomer, unassigned; diastereoisomer 2) [Example 152, (±)-(4-Chloro-2-{2-[(trans)-2-(3-chloro-phenyl)-cyclopropanecarbonyl]-1,2,3,4-tetrahydro-isoquinolin-1-yl}-phenoxy)-acetic acid (diastereoisomer 2)], the IC50 [1] was 33.4 nM.
For O=C(O)COc1ccc(Cl)cc1C1c2ccccc2CN1C(=O)CCn1ncc2c(F)cccc21 (single isomer, unassigned) [Example 535, (4-Chloro-2-{2-[3-(4-fluoro-indazol-1-yl)-propionyl]-2,3-dihydro-1H-isoindol-1-yl}-phenoxy)-acetic acid], the IC50 [2] was 15.1 nM.
NC(=O)c1ncccc1OCC(=O)N1CCc2ccccc2C1c1cc(Cl)ccc1OCC(=O)O (racemic) [Example 479] showed an IC50 [2] of 199 nM.
In the case of Cc1ccccc1OCC(=O)N1CCc2ccccc2C1c1cc(F)ccc1OCC(=O)O (racemic) [Example 136, (±)-{4-Fluoro-2-[2-(2-o-tolyloxy-acetyl)-1,2,3,4-tetrahydro-isoquinolin-1-yl]-phenoxy}-acetic acid], the IC50 [1] is reported as 119 nM.
With C[C@@H](Oc1ccc(F)cc1[C@@H]1c2ccccc2CCN1C(=O)OCc1ccccc1)C(=O)O [Example 27, (S)-1-[2-((R)-1-Carboxy-ethoxy)-5-fluoro-phenyl]-3,4-dihydro-1H-isoquinoline-2-carboxylic acid benzyl ester] the IC50 [1] was 12.1 nM.
With COc1ccccc1CNC(=O)N1CCc2ccccc2C1c1cc(F)ccc1OCC(=O)O (racemic) [Example 201] the IC50 [1] was 21 nM.
For O=C(O)COc1ccc(Cl)cc1C1c2ccccc2CCN1C(=O)CCOc1ccc(Cl)cc1 (racemic) [Example 89, (±)-(4-Chloro-2-{2-[3-(4-chloro-phenoxy)-propionyl]-1,2,3,4-tetrahydro-isoquinolin-1-yl}-phenoxy)-acetic acid], the IC50 [1] was 37.9 nM.
Compound O=C(O)COc1ccc(Cl)cc1C1c2ccccc2CCN1C(=O)OCc1ccc(Cl)cc1 (racemic) [Example 272] has an IC50 [1] of 17.1 nM.
In the case of Cn1cncc1COC(=O)N1CCc2c(ccc(F)c2F)[C@H]1c1cc(Cl)ccc1OCC(=O)O [Example 315, (S)-1-(2-Carboxymethoxy-5-chloro-phenyl)-5,6-difluoro-3,4-dihydro-1H-isoquinoline-2-carboxylic acid 3-methyl-3H-imidazol-4-ylmethyl ester], the IC50 [2] is reported as 2.82 nM.
In the case of CC(C)COCCC(=O)N1CCc2ccccc2C1c1cc(Cl)ccc1OCC(=O)O (racemic) [Example 450], the IC50 [2] is reported as 403 nM.
